{"source": "patent US20060160989A1", "about": "“Polypeptide useful as antiallergic/antiasthmatic activity, methods for the preparation thereof, pharmaceutical compositions containing such polypeptide and use thereof” (COUNCIL OF SCIENTIC AND INDUSTRIAL RESEARCH, priority 2002, published 2006)", "key": {"[1]": {"system": "passive cutaneous anaphylaxis (PCA)", "experiment": "Passive cutaneous anaphylaxis (PCA) test in rats", "type": "in vivo", "settings": "for % Anti-PCA activity: rats"}, "[2]": {"system": "sensitised guinea pig ileum", "experiment": "Antigen (egg albumin) induced contraction of sensitised guinea pig ileum (Schultz-Dale phenomenon)", "procedure": "(§1) This activity of peptide 96/199 was comarable with disodium cromoglycate (50 mg/kg ip) which is a standard antiallergic drug effective by inhalation."}, "sensitised guinea pigs": {"system": "sensitised guinea pigs", "experiment": "Aerosol test, egg-albumin, sensitised guinea pigs", "type": "in vivo", "procedure": "as §1"}, "Normal mast cells": {"system": "Normal mast cells", "experiment": "Mast cell degranulation by comp 48/80 in normal mast cells (non-immunological)", "type": "in vivo, rats", "excerpt": "(§2) Peptide 96/199 is related to the sequence of IgE Fc fragment."}, "normal guinea pigs": {"system": "normal guinea pigs", "experiment": "Aerosol test, histamine, guinea pigs", "type": "in vivo"}, "Sensitised mast cells": {"system": "Sensitised mast cells", "experiment": "Mast cell degranulation by egg albumin in sensitised mast cells (immunological)", "type": "in vivo, rats", "excerpt": "as §2"}, "[3]": {"experiment": "Other pharmacological studies (cardiovascular, CNS, anti-inflammatory, diuretic)", "type": "in vivo", "excerpt": "Other Pharmacological Studies: Peptide 96-199 was further evaluated for its cardiovascular, Central Nervous System (CNS), anti-inflammatory, diuretic activities."}, "leucine *amino-peptidase": {"system": "leucine *amino-peptidase", "settings": "enzymatic hydrolysis with leucine aminopeptidase, cited from earlier work"}, "[4]": {"settings": "50.0 pro (10.0 × 5 d) mg/kg × days"}, "[5]": {"settings": "0.5 pro (0.1 × 5 d) mg/kg × days"}, "[6]": {"settings": "1.0 pro (0.2 × 5 d) mg/kg × days"}, "[7]": {"settings": "2.5 pro (0.5 × 5 d) mg/kg × days"}, "[8]": {"settings": "5.0 pro (1.0 × 5 d) mg/kg × days"}}, "note": "Where two headings read alike, the source gives them in different places."}
{"compound": "O=C([O-])c1cc(=O)c2c(OCC(O)COc3cccc4oc(C(=O)[O-])cc(=O)c34)cccc2o1.[Na+].[Na+]", "note": "[DSCG, disodium cromoglycate, reference compound]", "values": [{"measurement": "anti PCA activity", "setting": "[1]; 50 mg/kg by nasal route", "value": 81, "unit": "%"}, {"measurement": "% Anti-PCA activity", "setting": "[1]; 50.0 mg/kg IP", "value": 77, "unit": "%"}, {"measurement": "% Protection to ileum contraction induced by egg albumin", "setting": "[2]; concentration 1.0 (μg/mL)", "value": "No block"}, {"measurement": "% Protection to ileum contraction induced by egg albumin", "setting": "[2]; concentration 2.0 (μg/mL)", "value": 18, "unit": "%"}, {"measurement": "% Protection to ileum contraction induced by egg albumin", "setting": "[2]; concentration 3.0 (μg/mL)", "value": 59, "unit": "%"}, {"measurement": "% Protection, Egg-albumin aerosol", "setting": "sensitised guinea pigs; 50 mg/kg ip", "value": 64, "unit": "%"}, {"measurement": "% Protection, normal mast cells (Noninnunological: Comp. 48/80)", "setting": "Normal mast cells; [4]", "value": 72, "unit": "%"}, {"measurement": "% Protection, Histamine aerosol", "setting": "normal guinea pigs; 50 mg/kg ip", "value": 17, "unit": "%"}, {"measurement": "% Protection, sensitised mast cells (Immunological: Egg albumin)", "setting": "Sensitised mast cells; [4]", "value": 71, "unit": "%"}]}
{"compound": "L-alanyl-glycyl-glycyl-L-aspartyl-sar-L-l ys [96/199]", "values": [{"measurement": "% Anti-PCA activity", "setting": "[1]; 0.5 mg/kg PO", "value": 43, "unit": "%"}, {"measurement": "% Anti-PCA activity", "setting": "[1]; 1.0 mg/kg PO", "value": 48, "unit": "%"}, {"measurement": "% Anti-PCA activity", "setting": "[1]; 2.5 mg/kg PO", "value": 74, "unit": "%"}, {"measurement": "% Anti-PCA activity", "setting": "[1]; 5.0 mg/kg PO", "value": 82, "unit": "%"}, {"measurement": "% Protection to ileum contraction induced by egg albumin", "setting": "[2]; concentration 1.0 (μg/mL)", "value": 60, "unit": "%"}, {"measurement": "% Protection to ileum contraction induced by egg albumin", "setting": "[2]; concentration 2.0 (μg/mL)", "value": 78, "unit": "%"}, {"measurement": "% Protection to ileum contraction induced by egg albumin", "setting": "[2]; concentration 3.0 (μg/mL)", "value": 92, "unit": "%"}, {"measurement": "% Protection, Egg-albumin aerosol", "setting": "sensitised guinea pigs; 2.5 mg/kg po", "value": 55, "unit": "%"}, {"measurement": "% Protection, Egg-albumin aerosol", "setting": "sensitised guinea pigs; 5.0 mg/kg po", "value": 61, "unit": "%"}, {"measurement": "% Protection, normal mast cells (Noninnunological: Comp. 48/80)", "setting": "Normal mast cells; [5]", "value": 39, "unit": "%"}, {"measurement": "% Protection, normal mast cells (Noninnunological: Comp. 48/80)", "setting": "Normal mast cells; [6]", "value": 55, "unit": "%"}, {"measurement": "% Protection, normal mast cells (Noninnunological: Comp. 48/80)", "setting": "Normal mast cells; [7]", "value": 77, "unit": "%"}, {"measurement": "% Protection, normal mast cells (Noninnunological: Comp. 48/80)", "setting": "Normal mast cells; [8]", "value": 84, "unit": "%"}, {"measurement": "% Protection, Histamine aerosol", "setting": "normal guinea pigs; 2.5 mg/kg po", "value": "Nil"}, {"measurement": "% Protection, Histamine aerosol", "setting": "normal guinea pigs; 5.0 mg/kg po", "value": 10, "unit": "%"}, {"measurement": "% Protection, sensitised mast cells (Immunological: Egg albumin)", "setting": "Sensitised mast cells; [5]", "value": 34, "unit": "%"}, {"measurement": "% Protection, sensitised mast cells (Immunological: Egg albumin)", "setting": "Sensitised mast cells; [6]", "value": 47, "unit": "%"}, {"measurement": "% Protection, sensitised mast cells (Immunological: Egg albumin)", "setting": "Sensitised mast cells; [7]", "value": 66, "unit": "%"}, {"measurement": "% Protection, sensitised mast cells (Immunological: Egg albumin)", "setting": "Sensitised mast cells; [8]", "value": 72, "unit": "%"}, {"measurement": "any other pharmacological activity", "setting": "[3]; in vivo", "value": "devoid of any other pharmacological activity"}, {"measurement": "cardiovascular, Central Nervous System (CNS), anti-inflammatory, diuretic activities", "setting": "[3]; up to a dose of 10 mg/kg", "value": "No significant effects"}]}
{"compound": "leucine enkephaline", "values": [{"measurement": "half life", "setting": "leucine *amino-peptidase; with beta-Cyclodextrins", "value": 75, "unit": "m."}, {"measurement": "half life", "setting": "leucine *amino-peptidase; without cyclodextrin", "value": 44, "unit": "min"}]}
